Assay results from the supplement of paper PMC8967900.

system: KOPN-8; assay: selective drug sensitivity score (sDSS, relative to normal bone marrow) (sDSS (score)); higher = more potent and effective on the cell line relative to normal bone marrow cells; settings: 72 h
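Further: ALL cell lines in 384-well plates, five doses spanning 10,000-fold, each plate scaled between vehicle and 100 µmol/L benzalkonium chloride controls, sDSS an adapted area-under-curve metric.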

SMILES | selective drug sensitivity score
Cc1cc(Nc2ncc(Cl)c(Nc3ccccc3S(=O)(=O)C(C)C)n2)c(OC(C)C)cc1C1CCNCC1 [Ceritinib] (top concentration 2500 nM) | -3.44
Cc1nc(Nc2ncc(C(=O)Nc3c(C)cccc3Cl)s2)cc(N2CCN(CCO)CC2)n1 [Dasatinib] (top concentration 1000 nM) | 0.4
N[C@@H]1CCCN(c2c(/C=C3\SC(=O)NC3=O)cccc2-c2ccccc2)C1 [AZD1208] (top concentration 10000 nM) | 7.4
CC(C)C[C@H](NC(=O)CNC(=O)c1cc(Cl)ccc1Cl)B(O)O [Ixazomib] (top concentration 1000 nM) | 6.26
C=CC(=O)N1CCC[C@@H](n2nc(-c3ccc(Oc4ccccc4)cc3)c3c(N)ncnc32)C1 [Ibrutinib] (top concentration 1000 nM) | 2.7
Cn1cnc2c(F)c(Nc3ccc(Br)cc3F)c(C(=O)NOCCO)cc21 [Binimetinib] (top concentration 1000 nM) | 10.3
COc1cc(Nc2ncc(F)c(Nc3ccc4c(n3)N(COP(=O)(O)O)C(=O)C(C)(C)O4)n2)cc(OC)c1OC [Fostamatinib] (top concentration 2500 nM) | 4.66
COc1cc2c(Oc3ccc(NC(=O)C4(C(=O)Nc5ccc(F)cc5)CC4)cc3F)ccnc2cc1OCCCN1CCOCC1 [Foretinib] (top concentration 1000 nM) | 7.84
Sc1ncnc2nc[nH]c12 [Mercaptopurine] (top concentration 10000 nM) | 14.9
COCCNCc1ccc(-c2cc3nccc(Oc4ccc(NC(=S)NC(=O)Cc5ccc(F)cc5)cc4F)c3s2)nc1 [Glesatinib] (top concentration 2500 nM) | 6.14
Cn1nccc1Nc1nccc(-c2ccn([C@H](CO)c3ccc(Cl)c(F)c3)c(=O)c2)n1 [Ravoxertinib] (top concentration 10000 nM) | 13.6
CC1=NN(c2ccc(C(=O)O)cc2)C(=O)C1=Cc1ccc(-c2cc(C)c(C)cc2[N+](=O)[O-])o1 [C646] (top concentration 25000 nM) | 2.44
CC(C)c1cc(C(=O)N2Cc3ccc(CN4CCN(C)CC4)cc3C2)c(O)cc1O [Onalespib] (top concentration 2500 nM) | 6.82
CCN1C(=O)CNc2ncc(-c3ccc(-c4nc[nH]n4)nc3C)nc21 [CC-115] (top concentration 10000 nM) | 17.5
COc1cc(N2CCC(N3CCN(C)CC3)CC2)ccc1Nc1ncc(Cl)c(Nc2ccccc2P(C)(C)=O)n1 [Brigatinib] (top concentration 1000 nM) | -3.34
CN1CCN(c2nc(C3=C(c4c[nH]c5ccccc45)C(=O)NC3=O)c3ccccc3n2)CC1 [Sotrastaurin] (top concentration 10000 nM) | 6.4
CCN(CC)Cc1ccc2cc(COC(=O)Nc3ccc(C(=O)NO)cc3)ccc2c1 [Givinostat] (top concentration 1000 nM) | 13.5
CNC(=O)c1cc(Oc2ccc(NC(=O)Nc3ccc(Cl)c(C(F)(F)F)c3)cc2)ccn1 [Sorafenib] (top concentration 1000 nM) | 2
COc1ccc(S(=O)(=O)Nc2cccnc2Nc2ccc(O)cc2)cc1 [ABT-751] (top concentration 10000 nM) | 14.6

system: LC4-1; assay: as above; settings: 72 h

SMILES | selective drug sensitivity score
Cc1cc(Nc2ncc(Cl)c(Nc3ccccc3S(=O)(=O)C(C)C)n2)c(OC(C)C)cc1C1CCNCC1 [Ceritinib] (top concentration 2500 nM) | 3.06
Cc1nc(Nc2ncc(C(=O)Nc3c(C)cccc3Cl)s2)cc(N2CCN(CCO)CC2)n1 [Dasatinib] (top concentration 1000 nM) | -2.8
N[C@@H]1CCCN(c2c(/C=C3\SC(=O)NC3=O)cccc2-c2ccccc2)C1 [AZD1208] (top concentration 10000 nM) | -3.8
CC(C)C[C@H](NC(=O)CNC(=O)c1cc(Cl)ccc1Cl)B(O)O [Ixazomib] (top concentration 1000 nM) | 6.46
C=CC(=O)N1CCC[C@@H](n2nc(-c3ccc(Oc4ccccc4)cc3)c3c(N)ncnc32)C1 [Ibrutinib] (top concentration 1000 nM) | 1
Cn1cnc2c(F)c(Nc3ccc(Br)cc3F)c(C(=O)NOCCO)cc21 [Binimetinib] (top concentration 1000 nM) | 2.18
COc1cc(Nc2ncc(F)c(Nc3ccc4c(n3)N(COP(=O)(O)O)C(=O)C(C)(C)O4)n2)cc(OC)c1OC [Fostamatinib] (top concentration 2500 nM) | 2.56
COc1cc2c(Oc3ccc(NC(=O)C4(C(=O)Nc5ccc(F)cc5)CC4)cc3F)ccnc2cc1OCCCN1CCOCC1 [Foretinib] (top concentration 1000 nM) | 2.04
Sc1ncnc2nc[nH]c12 [Mercaptopurine] (top concentration 10000 nM) | 17.1
COCCNCc1ccc(-c2cc3nccc(Oc4ccc(NC(=S)NC(=O)Cc5ccc(F)cc5)cc4F)c3s2)nc1 [Glesatinib] (top concentration 2500 nM) | 1.94
Cn1nccc1Nc1nccc(-c2ccn([C@H](CO)c3ccc(Cl)c(F)c3)c(=O)c2)n1 [Ravoxertinib] (top concentration 10000 nM) | 7
CC1=NN(c2ccc(C(=O)O)cc2)C(=O)C1=Cc1ccc(-c2cc(C)c(C)cc2[N+](=O)[O-])o1 [C646] (top concentration 25000 nM) | 1.84
CC(C)c1cc(C(=O)N2Cc3ccc(CN4CCN(C)CC4)cc3C2)c(O)cc1O [Onalespib] (top concentration 2500 nM) | 3.22
CCN1C(=O)CNc2ncc(-c3ccc(-c4nc[nH]n4)nc3C)nc21 [CC-115] (top concentration 10000 nM) | 4.54
COc1cc(N2CCC(N3CCN(C)CC3)CC2)ccc1Nc1ncc(Cl)c(Nc2ccccc2P(C)(C)=O)n1 [Brigatinib] (top concentration 1000 nM) | -0.94
CN1CCN(c2nc(C3=C(c4c[nH]c5ccccc45)C(=O)NC3=O)c3ccccc3n2)CC1 [Sotrastaurin] (top concentration 10000 nM) | 1.7
CCN(CC)Cc1ccc2cc(COC(=O)Nc3ccc(C(=O)NO)cc3)ccc2c1 [Givinostat] (top concentration 1000 nM) | 5.5
CNC(=O)c1cc(Oc2ccc(NC(=O)Nc3ccc(Cl)c(C(F)(F)F)c3)cc2)ccn1 [Sorafenib] (top concentration 1000 nM) | 0
COc1ccc(S(=O)(=O)Nc2cccnc2Nc2ccc(O)cc2)cc1 [ABT-751] (top concentration 10000 nM) | 11.7

system: MOLT-14; assay: as above; settings: 72 h

SMILES | selective drug sensitivity score
Cc1cc(Nc2ncc(Cl)c(Nc3ccccc3S(=O)(=O)C(C)C)n2)c(OC(C)C)cc1C1CCNCC1 [Ceritinib] (top concentration 2500 nM) | -3.44
Cc1nc(Nc2ncc(C(=O)Nc3c(C)cccc3Cl)s2)cc(N2CCN(CCO)CC2)n1 [Dasatinib] (top concentration 1000 nM) | 4.2
N[C@@H]1CCCN(c2c(/C=C3\SC(=O)NC3=O)cccc2-c2ccccc2)C1 [AZD1208] (top concentration 10000 nM) | 1.5
CC(C)C[C@H](NC(=O)CNC(=O)c1cc(Cl)ccc1Cl)B(O)O [Ixazomib] (top concentration 1000 nM) | 4.96
C=CC(=O)N1CCC[C@@H](n2nc(-c3ccc(Oc4ccccc4)cc3)c3c(N)ncnc32)C1 [Ibrutinib] (top concentration 1000 nM) | 2.6
Cn1cnc2c(F)c(Nc3ccc(Br)cc3F)c(C(=O)NOCCO)cc21 [Binimetinib] (top concentration 1000 nM) | 4.38
COc1cc(Nc2ncc(F)c(Nc3ccc4c(n3)N(COP(=O)(O)O)C(=O)C(C)(C)O4)n2)cc(OC)c1OC [Fostamatinib] (top concentration 2500 nM) | -0.34
COc1cc2c(Oc3ccc(NC(=O)C4(C(=O)Nc5ccc(F)cc5)CC4)cc3F)ccnc2cc1OCCCN1CCOCC1 [Foretinib] (top concentration 1000 nM) | 1.94
Sc1ncnc2nc[nH]c12 [Mercaptopurine] (top concentration 10000 nM) | 10.9
